Reference: ChEMBL document CHEMBL1201862, “PubChem BioAssay data set” (2004)
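In this assay, cells in 96-well plates receive the compound at five concentrations for 48 hours. Endpoints are linearly interpolated between the surrounding concentrations. GI50 = concentration required for 50% inhibition of growth.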 Active and inactive are the calls of the source. Cut-off read from the data, not from the text of the source: active = GI50 up to about 1.1 µM and inactive = higher.

Experiments:
Assay in all cases: growth of human tumour cells (NCI), 48 h
UACC-62 = system: UACC-62
HCT-15 = system: HCT-15
SNB-75 = system: SNB-75
SK-MEL-2 = system: SK-MEL-2
K562 = system: K562
SK-OV-3 = system: SK-OV-3
MOLT-4 = system: MOLT-4
COLO 205 = system: COLO 205
SF-268 = system: SF-268
HL-60 = system: HL-60
TK-10 = system: TK-10
NCI-H460 = system: NCI-H460
OVCAR-4 = system: OVCAR-4
SF-295 = system: SF-295
RXF 393 = system: RXF 393
NCI-H522 = system: NCI-H522
UACC-257 = system: UACC-257
SNB-19 = system: SNB-19
HCT-116 = system: HCT-116

Compound: O=C1c2ccccc2C(=O)c2c(O)c(NCCCNCCO)cc(O)c21
- GI50 (UACC-62): 18.7 µM (inactive)
- GI50 (HCT-15): 5.83 µM
- GI50 (SNB-75): 12.9 µM (inactive)
- GI50 (SK-MEL-2): 18 µM (inactive)
- GI50 (K562): 1.66 µM (inactive)
- GI50 (SK-OV-3): 12.4 µM (inactive)
- GI50 (MOLT-4): 2.74 µM (inactive)
- GI50 (COLO 205): 5.92 µM (inactive)
- GI50 (SF-268): 7.91 µM (inactive)
- GI50 (HL-60): 4.18 µM (inactive)
- GI50 (TK-10): 8.83 µM (inactive)
- GI50 (NCI-H460): 3.33 µM (inactive)
- GI50 (OVCAR-4): 10.2 µM (inactive)
- GI50 (SF-295): 10.7 µM (inactive)

Compound: COc1ccc(C(=O)Nc2ccccc2)cc1[N+](=O)[O-]
- GI50 (UACC-62): > 100 µM (inactive)
- GI50 (HCT-15): > 100 µM
- GI50 (SNB-75): 59.7 µM (inactive)
- GI50 (SK-MEL-2): > 100 µM (inactive)
- GI50 (K562): > 100 µM (inactive)
- GI50 (SK-OV-3): > 100 µM (inactive)
- GI50 (MOLT-4): 97.5 µM (inactive)
- GI50 (COLO 205): > 100 µM (inactive)
- GI50 (SF-268): > 100 µM (inactive)
- GI50 (TK-10): > 100 µM (inactive)
- GI50 (RXF 393): 76.7 µM (inactive)
- GI50 (NCI-H460): > 100 µM (inactive)
- GI50 (NCI-H522): 87.9 µM (inactive)
- GI50 (UACC-257): > 100 µM (inactive)
- GI50 (SNB-19): > 100 µM (inactive)
- GI50 (SF-295): > 100 µM (inactive)

Compound: Cc1cc(O)cc2c1O[C@@]1(C)CCC3[C@@]4(C)CC[C@H](O)C(C)(C)C4CC[C@@]3(C)[C@H]1C2 (stereo not given in full)
- GI50 (UACC-62): 8.11 µM (inactive)
- GI50 (HCT-15): 3.03 µM
- GI50 (SNB-75): 3.03 µM (inactive)
- GI50 (K562): 2.47 µM (inactive)
- GI50 (SK-OV-3): 3.4 µM (inactive)
- GI50 (MOLT-4): 1.55 µM (inactive)
- GI50 (COLO 205): 17.5 µM (inactive)
- GI50 (HL-60): 2.99 µM (inactive)
- GI50 (TK-10): 12.5 µM (inactive)
- GI50 (HCT-116): 4.31 µM (inactive)
- GI50 (RXF 393): 3.56 µM (inactive)
- GI50 (NCI-H460): 4.41 µM (inactive)
- GI50 (NCI-H522): 6.52 µM (inactive)
- GI50 (UACC-257): 12.9 µM (inactive)
- GI50 (SF-295): 2.35 µM (inactive)

Compound: CC(=O)Nc1ccc(-c2nnc(SCC(=O)Nc3cccc(Cl)c3)o2)cc1
- GI50 (UACC-62): 15.4 µM (inactive)
- GI50 (HCT-15): 14.9 µM
- GI50 (SNB-75): 20 µM (inactive)
- GI50 (SK-MEL-2): 20 µM (inactive)
- GI50 (K562): 14.4 µM (inactive)
- GI50 (SK-OV-3): 38 µM (inactive)
- GI50 (MOLT-4): 19.1 µM (inactive)
- GI50 (COLO 205): 16.6 µM (inactive)
- GI50 (SF-268): 13.7 µM (inactive)
- GI50 (HL-60): 18.2 µM (inactive)
- GI50 (TK-10): 19.6 µM (inactive)
- GI50 (HCT-116): 12.9 µM (inactive)
- GI50 (RXF 393): 17.4 µM (inactive)
- GI50 (NCI-H460): 13.1 µM (inactive)
- GI50 (NCI-H522): 5.86 µM (inactive)
- GI50 (OVCAR-4): 17.9 µM (inactive)
- GI50 (UACC-257): 17.3 µM (inactive)
- GI50 (SNB-19): 22 µM (inactive)
- GI50 (SF-295): 18.8 µM (inactive)

Compound: CC(NS(=O)(=O)c1ccc([N+](=O)[O-])cc1)C(=O)O (stereo not given)
- GI50 (UACC-62): > 100 µM (inactive)
- GI50 (HCT-15): > 100 µM
- GI50 (SNB-75): 80.7 µM (inactive)
- GI50 (SK-MEL-2): > 100 µM (inactive)
- GI50 (K562): > 100 µM (inactive)
- GI50 (SK-OV-3): > 100 µM (inactive)
- GI50 (MOLT-4): > 100 µM (inactive)
- GI50 (COLO 205): > 100 µM (inactive)
- GI50 (SF-268): > 100 µM (inactive)
- GI50 (HL-60): > 100 µM (inactive)
- GI50 (TK-10): > 100 µM (inactive)
- GI50 (RXF 393): > 100 µM (inactive)
- GI50 (NCI-H460): > 100 µM (inactive)
- GI50 (NCI-H522): > 100 µM (inactive)
- GI50 (OVCAR-4): > 100 µM (inactive)
- GI50 (UACC-257): > 100 µM (inactive)
- GI50 (SNB-19): > 100 µM (inactive)
- GI50 (SF-295): > 100 µM (inactive)

Compound: COC(=O)/C=C\C(C#N)(C#N)/N=C/c1cccc(OC)c1
- GI50 (UACC-62): 15.2 µM (inactive)
- GI50 (HCT-15): 1.93 µM
- GI50 (SNB-75): 15.9 µM (inactive)
- GI50 (SK-MEL-2): 17.1 µM (inactive)
- GI50 (K562): 11.1 µM (inactive)
- GI50 (SK-OV-3): 25.3 µM (inactive)
- GI50 (MOLT-4): 1.9 µM (inactive)
- GI50 (COLO 205): 2.15 µM (inactive)
- GI50 (SF-268): 17.2 µM (inactive)
- GI50 (HL-60): > 100 µM (inactive)
- GI50 (TK-10): 1.91 µM (inactive)
- GI50 (HCT-116): 3.44 µM (inactive)
- GI50 (RXF 393): 3.18 µM (inactive)
- GI50 (NCI-H460): 20 µM (inactive)
- GI50 (NCI-H522): 1.38 µM (inactive)
- GI50 (OVCAR-4): 6.67 µM (inactive)
- GI50 (UACC-257): 14 µM (inactive)
- GI50 (SNB-19): 23.3 µM (inactive)
- GI50 (SF-295): 32.7 µM (inactive)

Compound: CN(C)C1(N(C)C)Oc2c(c(=O)n(C)c(=O)n2C)C(c2ccc(Br)cc2)C1(F)F (stereo not given)
- GI50 (UACC-62): > 100 µM (inactive)
- GI50 (HCT-15): > 100 µM
- GI50 (SNB-75): > 100 µM (inactive)
- GI50 (SK-MEL-2): > 100 µM (inactive)
- GI50 (SK-OV-3): > 100 µM (inactive)
- GI50 (MOLT-4): > 100 µM (inactive)
- GI50 (COLO 205): > 100 µM (inactive)
- GI50 (SF-268): > 100 µM (inactive)
- GI50 (TK-10): > 100 µM (inactive)
- GI50 (HCT-116): > 100 µM (inactive)
- GI50 (RXF 393): > 100 µM (inactive)
- GI50 (NCI-H460): > 100 µM (inactive)
- GI50 (OVCAR-4): > 100 µM (inactive)
- GI50 (UACC-257): > 100 µM (inactive)
- GI50 (SNB-19): > 100 µM (inactive)
- GI50 (SF-295): > 100 µM (inactive)

Compound: Cn1nc2ccc3nccc(N4CCN(CCO)CC4)c3c2n1
- GI50 (UACC-62): > 100 µM (inactive)
- GI50 (HCT-15): 4.02 µM
- GI50 (SNB-75): > 100 µM (inactive)
- GI50 (SK-MEL-2): > 100 µM (inactive)
- GI50 (K562): 58.6 µM (inactive)
- GI50 (SK-OV-3): > 100 µM (inactive)
- GI50 (MOLT-4): 31.7 µM (inactive)
- GI50 (COLO 205): > 100 µM (inactive)
- GI50 (SF-268): > 100 µM (inactive)
- GI50 (TK-10): > 100 µM (inactive)
- GI50 (HCT-116): > 100 µM (inactive)
- GI50 (RXF 393): > 100 µM (inactive)
- GI50 (NCI-H460): > 100 µM (inactive)
- GI50 (NCI-H522): > 100 µM (inactive)
- GI50 (OVCAR-4): > 100 µM (inactive)
- GI50 (UACC-257): > 100 µM (inactive)
- GI50 (SNB-19): > 100 µM (inactive)
- GI50 (SF-295): > 100 µM (inactive)
